Experimental data reported in PMC4335062, “Data-Driven Prediction and Design of bZIP Coiled-Coil Interactions” (PLoS Computational Biology, 2015).
Read-outs that look alike come from different tables or passages of the source. Each block holds one sequence with its values, some of them ahead of it. Where no end group is shown, it is not given here.

Assays:
Experiment in all cases: Direct-binding FRET assay
Settings in all cases: read-out: Kd
ATF3 = molecular target: T1, ATF3 (Homo sapiens, UniProt P18847)
T1 construct: made in house
T1 sequence (P18847 86-149 limits assumed): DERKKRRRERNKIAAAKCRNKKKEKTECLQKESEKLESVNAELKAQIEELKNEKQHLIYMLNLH
Protocol: (§1) The direct binding assay was performed manually in 384-well plates and is similar to a previously described assay. Wells were filled with 20 μL of 1 mM TCEP-HCl. A 4 μM stock of acceptor protein was made fresh in 1 mM TCEP-HCl, and 20 μL was titrated in 2-fold dilutions over the wells. […] The direct-binding FRET data were fit as previously described. Briefly, the Kd of the designed peptide homodimer was experimentally determined and used with previously determined target homodimer Kd values to determine the heterodimer Kd. The homodimer Kd values used for the human bZIPs were from; experiments done by […] et al. used the same protein constructs for the human bZIP proteins, the same buffer conditions, and the same assay. The fitting used a system of ordinary differential equations to describe the concentrations of homo and heterodimers formed by the donor (D) and acceptor (A) as a function of the heterodimer Kd. MATLAB was used to simulate the binding experiment for different Kd values, and the value that gave the best agreement between simulation and experiment was assigned. A minimum 15% change in the donor fluorescence upon titrating the acceptor peptide from 0 to 1000 nM was required for a fit to be attempted. If this minimum was not met, the interaction was classified as “NS” for no signal change. […] For such curves, we removed the first five points and re-fit the data.

NFE2 = molecular target: T2, NFE2 (Homo sapiens, UniProt Q16621)
T2 construct: made in house
T2 sequence (Q16621 266-329 limits assumed): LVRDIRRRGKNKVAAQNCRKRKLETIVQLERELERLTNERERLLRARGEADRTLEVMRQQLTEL
Protocol: as §1

ATF4 = molecular target: T3, ATF4 (Homo sapiens, UniProt P18848)
T3 construct: made in house
T3 sequence (P18848 278-341 limits assumed): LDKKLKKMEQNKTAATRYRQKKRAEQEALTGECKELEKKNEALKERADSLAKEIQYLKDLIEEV
Protocol: as §1

CREB1 = molecular target: T4, CREB1 (Homo sapiens, UniProt P16220)
T4 construct: made in house
T4 sequence (P16220 269-327 limits assumed): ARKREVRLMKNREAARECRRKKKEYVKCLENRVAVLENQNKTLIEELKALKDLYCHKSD
Protocol: as §1

NFE2L3 = molecular target: T5, NFE2L3 (Homo sapiens, UniProt Q9Y4A8)
T5 construct: made in house
T5 sequence (Q9Y4A8 578-641 limits assumed): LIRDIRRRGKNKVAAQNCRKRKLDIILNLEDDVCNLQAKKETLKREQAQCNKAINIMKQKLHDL
Protocol: as §1

XBP1 = molecular target: T6, XBP1 (Homo sapiens, UniProt P17861)
T6 construct: made in house
T6 sequence (P17861 70-133 limits assumed): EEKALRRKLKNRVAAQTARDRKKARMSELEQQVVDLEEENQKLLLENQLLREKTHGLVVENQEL
Protocol: as §1

MAFF = molecular target: T7, MAFF (Homo sapiens, UniProt Q9ULX9)
T7 construct: made in house
T7 sequence (Q9ULX9 51-114 limits assumed): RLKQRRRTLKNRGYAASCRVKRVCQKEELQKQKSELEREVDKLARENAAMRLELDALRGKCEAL
Protocol: as §1

JUN = JUN (Homo sapiens, UniProt P05412); design: made in house
Protocol: as §1

FOS = FOS (Homo sapiens, UniProt P01100); design: made in house
Protocol: as §1

ATF6B = ATF6B (Homo sapiens, UniProt Q99941); design: made in house
Chain of ATF6B (Q99941 325-388 limits assumed): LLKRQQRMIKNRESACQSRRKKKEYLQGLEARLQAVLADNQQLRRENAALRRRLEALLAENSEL
Protocol: as §1

MAFG = MAFG (Homo sapiens, UniProt O15525); design: made in house
Chain of MAFG (O15525 51-114 limits assumed): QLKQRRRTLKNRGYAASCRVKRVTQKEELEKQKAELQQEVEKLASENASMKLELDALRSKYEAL
Protocol: as §1

[1] = 4°C, C-terminal rhodamine design, mean or single
[2] = 4°C, N-terminal rhodamine design, mean or single
[3] = 23°C, C-terminal rhodamine design, mean or single
[4] = 23°C, N-terminal rhodamine design, mean or single
[5] = 37°C, C-terminal rhodamine design, mean or single
[6] = 37°C, N-terminal rhodamine design, mean or single
[7] = 4°C, N-terminal rhodamine design, repeat 1
[8] = 4°C, N-terminal rhodamine design, repeat 2
[9] = 23°C, N-terminal rhodamine design, repeat 1
[10] = 37°C, C-terminal rhodamine design, repeat 1
[11] = 37°C, C-terminal rhodamine design, repeat 2
[12] = 23°C, C-terminal rhodamine design, repeat 1
[13] = 23°C, C-terminal rhodamine design, repeat 2
[14] = 4°C, C-terminal rhodamine design, repeat 1
[15] = 23°C, C-terminal fluorescein design as donor, TAMRA target titrated
[16] = 37°C, C-terminal fluorescein design as donor, TAMRA target titrated
[17] = 4°C, C-terminal fluorescein design as donor, TAMRA target titrated

Kd (ATF3; [1]): > 5000 nM
Kd (ATF3; [2]): > 1000 nM
Kd (ATF3; [3]): > 5000 nM
Kd (ATF3; [4]): > 1000 nM
Kd (ATF3; [5]): > 1000 nM
Kd (ATF3; [6]): > 1000 nM
Kd (NFE2; [1]): 162 nM
Kd (NFE2; [2]): > 5000 nM
Kd (NFE2; [3]): > 5000 nM
Kd (NFE2; [4]): > 1000 nM
Kd (NFE2; [5]): > 5000 nM
Kd (NFE2; [6]): > 1000 nM
Kd (ATF4; [1]): 1 nM
Kd (ATF4; [2]): > 1000 nM
Kd (ATF4; [7]): > 1000 nM
Kd (ATF4; [8]): > 1000 nM
Kd (ATF4; 4°C, N-terminal rhodamine design, repeat 3): > 1000 nM
Kd (ATF4; [3]): 1 nM
Kd (ATF4; [9]): > 5000 nM
Kd (ATF4; 23°C, N-terminal rhodamine design, repeat 2): > 5000 nM
Kd (CREB1; [1]): 133 nM
Kd (CREB1; [2]): 506 nM
Kd (CREB1; [3]): 589 nM
Kd (CREB1; [4]): > 5000 nM
Kd (CREB1; [6]): > 1000 nM
Kd (NFE2L3; [1]): > 5000 nM
Kd (NFE2L3; [2]): > 1000 nM
Kd (NFE2L3; [3]): > 1000 nM
Kd (NFE2L3; [4]): > 1000 nM
Kd (NFE2L3; [5]): 911 nM
Kd (NFE2L3; [6]): > 1000 nM
Kd (XBP1; [1]): > 5000 nM
Kd (XBP1; [2]): > 5000 nM
Kd (XBP1; [3]): > 1000 nM
Kd (XBP1; [4]): > 5000 nM
Kd (XBP1; [5]): > 1000 nM
Kd (XBP1; [6]): > 5000 nM
Kd (MAFF; [1]): 266 nM
Kd (MAFF; [7]): > 5000 nM
Kd (MAFF; [3]): > 5000 nM
Kd (MAFF; [9]): > 5000 nM
Kd (MAFF; [5]): > 5000 nM
Kd (MAFF; 37°C, N-terminal rhodamine design, repeat 1): > 5000 nM
Kd (JUN; [1]): 119 nM
Kd (JUN; [2]): > 5000 nM
Kd (JUN; [3]): > 5000 nM
Kd (JUN; [4]): > 5000 nM
Kd (JUN; [5]): > 5000 nM
Kd (JUN; [6]): > 5000 nM
Kd (FOS; [2]): 89.6 nM
Kd (FOS; [4]): 753 nM
Kd (FOS; [10]): > 5000 nM
Kd (FOS; [11]): > 5000 nM
Kd (ATF6B; [2]): > 5000 nM
Kd (ATF6B; [12]): > 5000 nM
Kd (ATF6B; [13]): > 5000 nM
Kd (ATF6B; [4]): > 5000 nM
Kd (ATF6B; [10]): > 5000 nM
Kd (ATF6B; [11]): > 5000 nM
Kd (MAFG; [1]): > 5000 nM
Kd (MAFG; [3]): > 1000 nM
Kd (MAFG; [4]): > 1000 nM
Kd (MAFG; [5]): > 1000 nM
Kd (MAFG; [6]): > 1000 nM
Sequence: KRIAYLRQRIAELRNENHVLESRIQRMEKEKDALQQDRDHLEYEL [ATF5-d1]

Kd (ATF3; [14]): > 1000 nM
Kd (ATF3; [2]): > 1000 nM
Kd (ATF3; [15]): > 1000 nM
Kd (ATF3; [12]): > 1000 nM
Kd (ATF3; [4]): > 1000 nM
Kd (ATF3; [16]): > 1000 nM
Kd (ATF3; [10]): > 1000 nM
Kd (ATF3; [6]): > 1000 nM
Kd (NFE2; [17]): 42.4 nM
Kd (NFE2; [2]): > 5000 nM
Kd (NFE2; [12]): 200 to 1000 nM
Kd (NFE2; [4]): > 1000 nM
Kd (NFE2; [16]): > 1000 nM
Kd (NFE2; [10]): > 5000 nM
Kd (NFE2; [11]): > 5000 nM
Kd (NFE2; [6]): > 1000 nM
Kd (ATF4; [17]): 2.3 nM
Kd (ATF4; [1]): 1 nM
Kd (ATF4; [7]): > 5000 nM
Kd (ATF4; [8]): > 5000 nM
Kd (ATF4; [15]): 3.7 nM
Kd (ATF4; [3]): 1 nM
Kd (ATF4; [16]): 10 nM
Kd (CREB1; [17]): > 5000 nM
Kd (CREB1; [14]): > 1000 nM
Kd (CREB1; [2]): > 5000 nM
Kd (CREB1; [15]): > 1000 nM
Kd (CREB1; [12]): > 1000 nM
Kd (CREB1; [4]): > 5000 nM
Kd (CREB1; [16]): > 1000 nM
Kd (CREB1; [10]): > 5000 nM
Kd (CREB1; [6]): > 1000 nM
Kd (NFE2L3; [14]): > 5000 nM
Kd (NFE2L3; [2]): > 1000 nM
Kd (NFE2L3; [12]): > 5000 nM
Kd (NFE2L3; [4]): > 1000 nM
Kd (NFE2L3; [10]): > 5000 nM
Kd (NFE2L3; [6]): > 1000 nM
Kd (XBP1; [14]): > 1000 nM
Kd (XBP1; [2]): > 1000 nM
Kd (XBP1; [12]): > 1000 nM
Kd (XBP1; [4]): > 1000 nM
Kd (XBP1; [10]): > 1000 nM
Kd (XBP1; [6]): > 1000 nM
Kd (MAFF; [1]): > 5000 nM
Kd (MAFF; [2]): < 200 nM
Kd (MAFF; [12]): > 5000 nM
Kd (MAFF; [13]): < 200 nM
Kd (MAFF; [4]): > 1000 nM
Kd (MAFF; [10]): < 200 nM
Kd (MAFF; [11]): < 200 nM
Kd (MAFF; [6]): > 1000 nM
Kd (JUN; [17]): > 1000 nM
Kd (JUN; [1]): < 200 nM
Kd (JUN; [2]): > 1000 nM
Kd (JUN; [15]): > 1000 nM
Kd (JUN; [3]): < 200 nM
Kd (JUN; [4]): > 5000 nM
Kd (JUN; [16]): > 1000 nM
Kd (JUN; [5]): 623 nM
Kd (JUN; [6]): > 5000 nM
Kd (FOS; [2]): 133 nM
Kd (FOS; [15]): > 1000 nM
Kd (FOS; [12]): > 5000 nM
Kd (FOS; [4]): > 1000 nM
Kd (FOS; [16]): > 1000 nM
Kd (FOS; [10]): > 1000 nM
Kd (FOS; [6]): > 1000 nM
Kd (ATF6B; [17]): > 1000 nM
Kd (ATF6B; [14]): > 5000 nM
Kd (ATF6B; [2]): > 1000 nM
Kd (ATF6B; [15]): > 1000 nM
Kd (ATF6B; [12]): > 5000 nM
Kd (ATF6B; [4]): > 1000 nM
Kd (ATF6B; [16]): > 1000 nM
Kd (ATF6B; [10]): > 5000 nM
Kd (ATF6B; [6]): > 1000 nM
Kd (MAFG; [14]): > 5000 nM
Kd (MAFG; [2]): > 1000 nM
Kd (MAFG; [12]): > 5000 nM
Kd (MAFG; [4]): > 1000 nM
Kd (MAFG; [10]): 200 to 1000 nM
Kd (MAFG; [6]): > 1000 nM
Sequence: NQIKTLRTRLSKLRKDNLQLEKDIANLERKAKDLRAEKEQLEYEL [ATF4-d1]
